Experiments:
mTOR = assay: Intracellular S6 phosphorylation in engineered T cells; assay type: cell-based, human; conditions: 1 μM (also printed 1 mM) during production; live CD8+ T cells
Method: CD4+ and CD8+ T cells were isolated by immunoaffinity-based enrichment from leukapheresis samples from human donor subjects. […] The T cells cultured with our without Compound 63 were incubated overnight (approximately 24 hr) at 37° C., and were then transduced in serum-free culture media with our without Compound 63 ([…]) with a lentiviral vector encoding an anti-CD19 CAR. […] Following transduction, the cells were incubated in serum free media without recombinant cytokines (basal media) and with or without Compound 63 (1 mM) and allowed to incubate at about 37.0° C. in an incubator for up to 96 hours after initiation of the stimulation with the anti-CD3/anti-CD28 oligomeric stimulatory reagent (until day 5 of the process). […] Following incubation CD4+ and CD8+ T cells from each donor were harvested, formulated, and cryofrozen. The cryofrozen engineered CD4+ and CD8+ T cells were thawed, and T cells were assessed for intracellular S6 phosphorylation, a ribosomal protein and marker of mTOR inhibition, and co-stained for surface expression of CD4 or CD8 and for CCR7 and CD45RA as markers of memory subsets. pS6 expression in live CD8+ T cells by memory subsets was shown by the expression of CCR7 and CD45RA as shown in FIG. 16A.

CD4+ and CD8+ T cells [1] = assay: Viability and live cell count of engineered T cell composition; assay type: cell-based, human; conditions: with vs without compound during production
[2] = system: CD8+ T cells and CD4+ T cells; assay: CD27/CCR7 phenotypic subset profile by flow cytometry; assay type: cell-based, human
Method: (§1) CD4+ and CD8+ T cells were isolated by immunoaffinity-based enrichment from leukapheresis samples from human donor subjects. At day 1, isolated CD4+ and CD8+ T cells were mixed 1:1 and stimulated with an anti-CD3/anti-CD28 oligomeric stimulatory reagent generated as described in Example 1 in serum-free media supplemented with recombinant IL-2 (100 IU/mL), recombinant IL-7 (600 IU/mL), and recombinant IL-15 (100 IU/mL) with or without 1 μM of 2-(3-hydroxyphenyl)-9-(2-isopropylphenyl)-8-oxo-8,9-dihydro-7H-purine-6-carboxamide (Compound 63). The T cells cultured with our without Compound 63 were incubated overnight (approximately 24 hr) at 37° C., and were then transduced in serum-free culture media with our without Compound 63 ([…]) with a lentiviral vector encoding an anti-CD19 CAR. The CAR contained an scFv antigen-binding domain specific for CD19 (derived from FMC63), a CD28 transmembrane region, a 4-1BB costimulatory signaling region, and a CD3-zeta derived intracellular signaling domain. Following transduction, the cells were incubated in serum free media without recombinant cytokines (basal media) and with or without Compound 63 (1 mM) and allowed to incubate at about 37.0° C. in an incubator for up to 96 hours after initiation of the stimulation with the anti-CD3/anti-CD28 oligomeric stimulatory reagent (until day 5 of the process). […]

anti-CD19 CAR T cells = assay: Long-term stimulation with anti-idiotype antibody beads, expansion and survival; assay type: cell-based, human; conditions: 12 days, anti-ID antibody beads
Method: as §1, with “domain.” for “domain. Following transduction, the cells were incubated in serum free media without recombinant cytokines (basal media) and with or without Compound 63 (1 mM) and allowed to incubate at about 37.0° C. in an incubator for up to 96 hours after initiation of the stimulation with the anti-CD3/anti-CD28 oligomeric stimulatory reagent (until day 5 of the process).”
To further assess the functional activity of the cells, the generated T cell compositions were stimulated long-term over 12 days with beads conjugated with an anti-idiotype (ID) antibody against the anti-CD19 CAR, and expansion and survival of the cells were monitored (FIG. 17F, left panel) and total expansion metric calculated by area under the growth curve (FIG. 17F, right panel, AUC).

CAR-T cells = assay: Intracellular caspase expression in thawed CAR-T cells; assay type: cell-based, human; conditions: vs cells not incubated with compound
Method: as §1

CD4+ and CD8+ T cells [3] = assay: Intracellular cytokines after PMA/Ionomycin and Golgi inhibitor; assay type: cell-based, human; conditions: PMA/Ionomycin stimulation; engineered CD8+ and CD4+ T cells
Method: as §1

[4] = target: T1, mutein streptavidin designated Strep-tactin® (e.g. containing the sequence set forth in SEQ ID NO: 4) (Streptomyces avidinii, UniProt P22629, E68V/S69T/V71R); conditions: general statement in the description, no experiment described; read-out: binding affinity KD for Strep-tactin®; cited from earlier work
T1 construct: N-terminal methionine in place of Ala13 (N)
T1 sequence (P22629 other isoform, or with tags, fused parts or gaps E68V/S69T/V71R): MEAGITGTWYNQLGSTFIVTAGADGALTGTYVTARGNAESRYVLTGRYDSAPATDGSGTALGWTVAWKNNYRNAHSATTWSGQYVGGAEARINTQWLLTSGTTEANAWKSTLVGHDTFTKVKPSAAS

For `CC(C)c1ccccc1-n1c(=O)[nH]c2c(C(N)=O)nc(-c3cccc(O)c3)nc21` [Compound 63, 2-(3-hydroxyphenyl)-9-(2-isopropylphenyl)-8-oxo-8,9-dihydro-7H-purine-6-carboxamide], the “pS6 mean fluorescence intensity of memory T cell subsets (Temra, Tem, Tcm)” value (mTOR) was “decreased”, the “percentage of viable cells over time” value (CD4+ and CD8+ T cells [1]) was “no significant effect” and the “total number of viable cells over time” value (CD4+ and CD8+ T cells [1]) was “no significant effect”. For the same compound, the “phenotypic subset profile by CD27 and/or CCR7 expression” value [2] was “did not substantially alter”, the “function (expansion, AUC) following long-term CAR-specific stimulation” value (anti-CD19 CAR T cells) was “improved function” and the intracellular caspase expression (CAR-T cells) was “less”. For the same compound, the “level of intracellular cytokines IL2, IFNg, or TNF” value (CD4+ and CD8+ T cells [3]) was “substantially improved”.

In the case of WSHPQFEK [Strep-tag® II], the Kd [4] is given as roughly 1 µM.
